The values that follow come from patent US20030104473A1, “Common ligand mimics: benzimidazoles” (priority 2001, published 2003).

Molecules are shown by their SMILES. Where two headings read alike, the source gives them in different places.

In test [1] the target is dihydrodipicolinate reductase (DHPR) (Escherichia coli, UniProt P04036). The experiment in a line: DHPR kinetic assay, spectrophotometric oxidation of NADPH at 340 nm. It is filed as biochemical. The protocol: For DHPR analysis, the compounds were screened using a kinetic protocol that spectrophotometrically evaluates oxidation of NADPH.
Stock solutions of each of the reagents were prepared in the following concentrations. Dilutions of the stock solutions were prepared prior to running the assay in the concentrations indicated below. DHPR was diluted in 10 mM HEPES at a pH of 7.4. DHPS (dihydrodipicolinate synthase) was not diluted and was stored in eppindorf tubes.
The L-ASA (L-aspartate semialdehyde) solution was prepared in the following manner. […] stock solution of ASA was prepared. 100 μl of the ASA stock solution was mixed with 150 μl of concentrated NaHCO3 and 375 μl of H2O. For use in the assay, 28.8 mM L-ASA was equal to 625 μl of the solution. The L-ASA stock Aft solution was kept at a temperature of −20° C. After dilution, the pH of the 28.8 mM solution was checked and maintained between 1 and 2.
The DHPS reaction was monitored at 340 nm prior to and after addition of the inhibitor to detect background reaction with the inhibitor. The solution for background detection was a 945 μl solution containing 0.1 HEPES (pH 7.8), 1 mM pyruvate, 6 μM NADPH, 40 μM L-ASA, and 7 μl of 1 mg/ml DHPS at 25° C. in the volumes provided above. The sample solution was then mixed and incubated for 10 minutes. Next, 500 nM solutions of the inhibitors and enough DMSO to provide a final DMSO concentration of 5% of the total assay volume were added. The solution was mixed and incubated for an additional 6 minutes.
In DHPR samples, 5 μl of the diluted DHPR enzyme were added. The sample was mixed for 20 seconds and then the reaction was run for 10 minutes. After a 50 second lag, the samples were read in a Cary spectrophotometer at 340 nm. Reading of the samples was continued until 300 seconds. Cuvette #1 contained the control reaction (no inhibitor), and cuvette #2 contained the positive control reaction in which Cibacron Blue at 2.58 μM was substituted for inhibitor to yield 70 to 80% inhibition. The substrate was kept at a level at least 10 times the Km. The final concentration of L-ASA was about 1 mM.

Test [2] concerns the target T1, lactate dehydrogenase (LDH) (Oryctolagus cuniculus, UniProt P13491).
T1 construct: 10 μl of LDH from Rabbit Muscle; from tissue; host or cells: rabbit muscle
Nature of the test: LDH kinetic assay, spectrophotometric oxidation of NADH at 340 nm. It is filed as biochemical, Rabbit Muscle. The following applies: Cibacron Blue at 10.3 μM; read-out: inhibition of LDH (positive control). The protocol:
For LDH analysis, the compounds were screened using a kinetic protocol that spectrophotometrically evaluates oxidation of NADH.
(§1) Stock solutions of each of the reagents were prepared in the following concentrations. Dilutions of the stock solutions were prepared prior to running the assay in the concentrations indicated below.
The LDH reaction was monitored at 340 nm prior to and after addition of the inhibitor to detect background reaction with the inhibitor. Solutions of 100 μl of the inhibitors in DMSO were prepared to provide a final DMSO concentration of 5% of the total assay volume. These solutions were incubated for 6 minutes at 25° C. in a 990 μl of a solution containing 0.1 M HEPES, pH 7.4, 10 μM NADH, and 2.5 mM of pyruvate. The reaction was then initiated with 10 μl of LDH from Rabbit Muscle (0.5 μg/ml; 1:2000 dilution of 1.0 mg/ml). After the enzyme was added, the solution was mixed for 20 seconds, and the reaction was run for 10 minutes. After a 50 second lag, the samples were read in a Cary spectrophotometer at 340 nm. Reading of the samples was continued until 300 seconds. Cuvette #1 contained the control reaction (no inhibitor), and cuvette #2 contained the positive control reaction in which Cibacron Blue at 10.3 μM was substituted for inhibitor to yield 50 to 70% inhibition. The substrate was kept at a level at least 10 times the Km.

Test [3] concerns the target 1-deoxy-D-xylulose-5-phosphate reductase (DOXPR) (Escherichia coli, UniProt P45568). Nature of the test: DOXPR kinetic assay, spectrophotometric oxidation of NADPH at 340 nm. It is filed as biochemical. The following applies: Cibacron Blue at 10.32 μM; read-out: inhibition of DOXPR (positive control). The protocol: For DOXPR analysis, the compounds were screened using a kinetic protocol that spectrophotometrically evaluates oxidation of NADPH.
Stock solutions of each of the reagents were prepared in the following concentrations. Dilutions of the stock solutions were prepared prior to running the assay in the concentrations indicated below. DOXPR was diluted in 10 mM HEPES at a pH of 7.4.
The DOXPR reaction was monitored at 340 nm prior to and after addition of the inhibitor to detect background reaction with the inhibitor. Solutions of the inhibitors in DMSO were prepared to provide a final DMSO concentration of 5% of the total assay volume. These solutions were incubated for 6 minutes at 25° C. in a 990 μl of a solution containing 0.1 M HEPES, pH 7.4, 1 mM MnCl21.15 mM DOXP, and 8 μM NADPH. The oxidation reaction was then initiated with 10 μl of DOXP reductoisomerase (10 μg/ml). After the enzyme was added, the solution was mixed for 20 seconds, and the reaction was run for 10 minutes. After a 50 second lag, the samples were read in a Cary spectrophotometer at 340 nm. Reading of the samples was continued until 300 seconds. Cuvette #1 contained the control reaction (no inhibitor), and cuvette #2 contained the positive control reaction in which Cibacron Blue at 10.32 μM was substituted for inhibitor to yield 70 to 80% inhibition. The substrate was kept at a level at least 10 times the Km.

Test [4] has as its target T2, alcohol dehydrogenase (ADH) (Saccharomyces cerevisiae, UniProt P00330).
T2 construct: 10 μl of ADH from Bakers Yeast; host or cells: baker's yeast
T2 sequence (P00330 1-348): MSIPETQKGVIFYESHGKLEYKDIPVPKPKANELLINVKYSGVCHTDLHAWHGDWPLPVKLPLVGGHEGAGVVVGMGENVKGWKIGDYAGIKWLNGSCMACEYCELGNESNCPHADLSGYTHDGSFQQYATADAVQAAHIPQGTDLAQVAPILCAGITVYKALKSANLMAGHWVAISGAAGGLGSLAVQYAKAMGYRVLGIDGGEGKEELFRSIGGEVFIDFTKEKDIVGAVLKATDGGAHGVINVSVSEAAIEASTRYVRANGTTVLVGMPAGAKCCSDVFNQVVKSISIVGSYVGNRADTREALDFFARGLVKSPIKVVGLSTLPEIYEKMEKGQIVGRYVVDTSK
Nature of the test: ADH kinetic assay, spectrophotometric reduction of NAD+ at 340 nm. It counts as biochemical, Bakers Yeast. The following applies: Cibacron Blue at 15.5 μM; read-out: inhibition of ADH (positive control). The protocol: For ADH analysis, the compounds were screened using a kinetic protocol that spectrophotometrically evaluates reduction of NAD+.
as §1
The ADH reaction was monitored at 340 nm prior to and after addition of the inhibitor to detect background reaction with the inhibitor. Solutions of 100 μl of the inhibitors in DMSO were prepared to provide a final DMSO concentration of 5% of the total assay volume. These solutions were incubated for 6 minutes at 25° C. in a 990 μl of a solution containing 0.1 M HEPES, pH 8.0, 80 μM NAD+, and 130 mM of ethanol. The reaction was then initiated with 10 μl of ADH from Bakers Yeast ([…]; 1:400 dilution of 1.0 mg/ml). After the enzyme was added, the solution was mixed for 20 seconds, and the reaction was run for 10 minutes. After a 50 second lag, the samples were read in a Cary spectrophotometer at 340 nm. Reading of the samples was continued until 300 seconds. Cuvette #1 contained the control reaction (no inhibitor), and cuvette #2 contained the positive control reaction in which Cibacron Blue at 15.5 μM was substituted for inhibitor to yield 50 to 60% inhibition. The substrate was kept at a level at least 10 times the Km. The final concentration of […] was about 2.5 mM.
Where only a simple read was desired, as in the case of NAD+ concentration determination, 13 μl (10 M stock) of ethanol was used to drive the reaction, and 10 μl of pure enzyme (1 mg/ml) was used. NAD+was soluble at 2 mM, which allowed the concentration determination step to be skipped. In this situation, the procedure was as follows. All of the ingredients except for the enzyme were mixed together. The solution was mixed well and the absorbance at 340 nm read. The enzyme was added and read again at OD 340 after the absorbance stopped changing, generally 10 to 15 minutes after the enzyme was added.

Setting [5] is: Example 14, common ligand mimics (FIG. 8), read-out: IC50 for DHPR.
[6] abbreviates: Example 15, bi-ligands (FIG. 9), read-out: IC50 value for dihydrodipicolinate reductase (DHPR).

One may read the IC50 as the concentration needed to halve the response being measured. One may read the inhibition as the share of the control response that was lost under treatment.

Sequence of dihydrodipicolinate reductase (DHPR) (P04036 whole entry): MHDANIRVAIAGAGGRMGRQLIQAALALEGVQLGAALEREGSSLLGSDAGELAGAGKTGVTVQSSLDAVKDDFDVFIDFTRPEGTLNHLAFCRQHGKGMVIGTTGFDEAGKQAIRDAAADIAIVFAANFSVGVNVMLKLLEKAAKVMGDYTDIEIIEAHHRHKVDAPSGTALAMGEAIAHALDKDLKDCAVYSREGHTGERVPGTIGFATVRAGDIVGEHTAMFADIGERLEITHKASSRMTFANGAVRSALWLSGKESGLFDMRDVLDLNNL
Sequence of 1-deoxy-D-xylulose-5-phosphate reductase (DOXPR) (P45568 whole entry): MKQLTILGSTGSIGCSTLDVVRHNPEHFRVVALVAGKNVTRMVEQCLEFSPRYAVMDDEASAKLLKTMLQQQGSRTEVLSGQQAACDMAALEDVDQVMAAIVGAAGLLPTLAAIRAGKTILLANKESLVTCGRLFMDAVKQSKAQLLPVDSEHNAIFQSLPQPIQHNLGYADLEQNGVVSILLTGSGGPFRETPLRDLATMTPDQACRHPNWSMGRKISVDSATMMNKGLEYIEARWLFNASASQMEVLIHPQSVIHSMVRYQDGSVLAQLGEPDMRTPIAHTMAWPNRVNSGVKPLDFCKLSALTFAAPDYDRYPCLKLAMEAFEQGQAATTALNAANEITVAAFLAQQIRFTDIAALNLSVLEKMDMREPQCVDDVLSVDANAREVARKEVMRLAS

On to `COC(=O)c1ccc(-c2ccc(-c3nc4cc([N+](=O)[O-])ccc4[nH]3)o2)cc1` [4-[5-(5-nitro-1H-benzoimidazol-2-yl)-furan-2-yl]-benzoic acid methyl ester], for which the IC50 in test [1] (setting [5]) was more than 25 µM.
In the case of `Nc1c(S(=O)(=O)O)cc(Nc2ccc(Nc3nc(Cl)nc(Nc4ccccc4S(=O)(=O)O)n3)c(S(=O)(=O)O)c2)c2c1C(=O)c1ccccc1C2=O` [Cibacron Blue, reference compound], the inhibition at 10.3 µM in test [2] lay in the range of 50 to 70%. Besides, the inhibition at 10.32 µM in test [3] was 70 to 80%. In test [1] (Cibacron Blue at 2.58 μM, read-out: inhibition of DHPR (positive control)), the inhibition at 2.58 µM lay within 70 to 80%. Also, the inhibition at 15.5 µM in test [4] is 50 to 60%.
Consider `Cc1cccc2[nH]c(-c3ccc(-c4ccc(C(=O)O)cc4)o3)nc12` [compound 6a, 4-[5-(4-methyl-1H-benzimidazol-2-yl)-furan-2-yl]-benzoic acid], for which the IC50 in test [1] (setting [5]) was more than 100 µM.
For the compound `Cc1ccc2[nH]c(-c3ccc(-c4ccc(C(=O)O)cc4)o3)nc2c1` [compound 6c, 4-[5-(5-methyl-1-benzoimidazol-2-yl)furan-2-yl]-benzoic acid], the IC50 in test [1] (setting [5]) is more than 60 µM.
Regarding `O=C(NCCSc1cc(C(=O)O)nc(C(=O)O)c1)c1ccc(-c2ccc(-c3nc4cc([N+](=O)[O-])ccc4[nH]3)o2)cc1` [compound 21a, 4-(2-{4-[5-(5-nitro-1H-benzoimidazol-2-yl)-furan-2-yl]-benzoylamino)-ethylsulfanyl)-pyridine-2,6-dicarboxylic acid], in test [1] (setting [6]), the IC50 is approximately 0.758 µM.
The same measure, in the same setting: with `O=C(NCCSc1cc(C(=O)O)nc(C(=O)O)c1)c1ccc(-c2ccc(-c3nc4ccccc4[nH]3)o2)cc1` [compound 21b, 4-(2-{4-[5-(1H-benzoimidazol-2-yl)-furan-2-yl]-benzoylamino}-ethylsulfanyl)-pyridine-2,6-dicarbolxylic acid] the figure was more than 1.6 µM.
